What all share (format): cell-based
In assay [1] the test system is TK173 cells. The assay can be described thus: Collagen I Western blot in TGFβ1-treated TK173 fibroblasts. Conditions: Homo sapiens, Fibroblast, 10 ng/ml TGFβ1 for 5 days, then compound 48 hours, Collagen I immunoblot. The procedure:
(§1) Compound reconstitution. Prior to treatment, each compound was used from a stock solution of a concentration of 10 mg/ml in DMSO. Final concentration of DMSO in cell cultures was kept below 0.1%.
(§2) Cell culture and treatment. The human renal fibroblast cell line TK173 was derived from a normal human kidney (laboratory stock; (G. A. Müller et al., Exp. Nephrol. 1995, 3, 127). Cell line stabilization for research purposes was approved by the Ethics Committee of the Georg-August-University. TK173 cells were cultured in Dulbecco's modified Eagle's medium (DMEM, Gibco, USA) supplemented with 10% fetal bovine serum (FBS, Gibco, Germany) and 1% penicillin-streptomycin (PS, Gibco, USA) at 37° C. in a humidified atmosphere with 5% CO2. Cell line was routinely tested for mycoplasma contamination. To investigate the effect of compounds after profibrotic agent treatment, 3×10^4 TK173 cells were seeded in one well of a 6-well culture plate in normal medium. After 24 hours, the culture medium was removed, and the cells were incubated for a further 24 hours in FBS free culture medium (starvation medium). Then, 10 ng/ml TGFβ1 (R&D Systems, USA) was added to the starvation medium, and the culture medium was changed with fresh TGFβ1 in every alternate day. After 5 days of TGFβ1 treatment, cell culture medium was replaced by starvation medium with compounds at different concentration for following 48 hours of incubation.
Protein Extraction. Total proteins were extracted from the cultured cells by NP40 Cell Lysis Buffer (Invitrogen, USA) containing phosphatase (Sigma-Aldrich, USA) and protease inhibitor (Roche, Switzerland) followed by sonication and centrifugation at 12,000×g for 20 minutes at 4° C. to clear the lysates. The supernatant was collected and measured using Pierce BCA Protein Assay Kit (ThermoFisher Scientific) by PHOmo Microplate Reader (Autobio, China). The samples were stored at −80° C. prior to use.
Immunoblotting. Western blot analysis, 10 μg of extracted proteins were diluted in NuPAGE LDS Samples Buffer (Novex Life technologies, USA) containing 5% 2-Mercaptoethanol (Sigma-Aldrich, Germany), and following denatured for 5 minutes at 95° C. The proteins were resolved by 4-12% NuPAGE SDS-PAGE (Novex Life technologies, USA). Blots were often stripped with Thermo Scientific Restore PLUS Western Blot Stripping Buffer (Thermo Fisher Scientific, Germany) for reprobing. The following antibodies were used for immunoblotting: Collagen I (1:1000; ab233080, Abcam, USA), alpha smooth muscle Actin (1:1000; ab124964, Abcam, USA), GAPDH (1:8000; sc-32233, Santa Cruz, USA). Proteins were detected by LumiGLO chemiluminescent system (Cell Signaling Technology, USA) with appropriate secondary antibodies: anti-mouse HRP (1:2500; Dako, Denmark) and anti-rabbit HRP (1:2500; 7074, Cell Signaling Technology, USA) using ChemiDoc MP Imaging System (Bio-Rad, USA).
(In western blotting, separated proteins are transferred to a membrane and probed.)

Assay [2] deals with TK173 cells. In words: ELISA to detect secreted type I collagen (Pro-Collagen I alpha 1) in conditioned media of TGFβ1-treated TK173 fibroblasts. Conditions: Homo sapiens, Fibroblast, 10 ng/ml TGFβ1 for 5 days, then compound 48 hours, Pro-Collagen I alpha 1 ELISA of conditioned media, read-out: IC50, concentration where the TGFβ-stimulated collagen secretion is attenuated by 50%. Here is the method: as §1, §2
Conditioned media containing the secretome of TK173 fibroblast were harvested after 48 hours of compound treatments. Secretion of pro-Collagen 1 was assessed with Human Pro-Collagen I alpha 1 DuoSet ELISA (R&D Systems, USA). To prepare the ELISA plate, Human Pro-Collagen I α1 Capture Antibody was diluted in ELISA Plate-coating Buffer at 4 μg/ml working concentration. 100 μl of diluted Capture Antibody was added to the 96-well microplates and incubated overnight at room temperature. After three times washing with Wash Buffer, microplates were blocked by adding 300 μl of Reagent Diluent for 1 hour at room temperature. To proceed the ELISA, Human Pro-Collagen I α1 Standards were diluted in Reagent Diluent (range between 31.3 pg/ml-2000 pg/ml) and 100 μl of standards or conditioned mediums were add into designated wells. Microplates were incubated at room temperature for 2 hours. Human Pro-Collagen I α1 Detection Antibody was prepared in Reagent Diluent at 100 ng/ml working concentration and 100 μl of diluted Detection Antibody was applied for 2 hours at room temperature after extensive washing. Then, working solution of Streptavidin-HRP with Reagent Diluent was prepared by diluting 1:40 and added into each well. After 20 minutes at room temperature incubation, microplates were washed and applied with 100 μl of Substrate Solution for 20 minutes followed by Stop Solution after washing. Finally, signals were measured at 450 nm absorbance by PHOmo Microplate Reader (Autobio, China). The amount of pro-collagen 1 antibody fusion was quantified by extrapolating the signal into a linear range of a pro-collagen 1 standard curve. Screening compounds were typically tested in at concentrations between 5 and 200 μg/ml. The IC50 values observed by the dose response curves for each compound (n=4-6, two independent experiments) were obtained by nonlinear regression analysis using Prism 9 software (GraphPad, La Jolla, USA) and represent the concentration where the TGFβ-stimulated collagen secretion is attenuated by 50%.
On the technique in general: ELISA stands for enzyme-linked immunosorbent assay.

Assay [3] has as its system TK173 cells. In words: Collagen I mRNA PCR assay (qPCR, normalized to GAPDH) in TGFβ1-treated TK173 fibroblasts. As to conditions: Homo sapiens, Fibroblast, 10 ng/ml TGFβ1 for 5 days, then compound 48 hours. Here is the method: as §1, §2
RNA isolation. Total RNA was extracted by the TRIzol reagent (Life technologies, USA) and purified by PureLink RNA Mini Kit (Ambion, USA) according to instructions available from the manufacturer with minor modifications. The samples were stored at −80° C. prior to use. RNA concentrations were measured by NanoDrop Spectrophotometer (ThermoFisher Scientific, USA), and were equilibrated to 100 ng for complementary DNA (cDNA) synthesis.
Quantitative real-time PCR analysis (qPCR). For SYBR Green-based qPCR analysis, cDNA preparation was performed by using DNAse I (Sigma-Aldrich, USA) digestion to remove residual genomic DNA and SuperScript II Reverse Transcriptase kit (Invitrogen, USA) to synthesize cDNA following the manufacturer's detailed instructions. All qPCR reactions were performed using the StepOne Plus Real-Time System (Applied Biosystems, USA) and amplifications were done using the SYBR Green PCR Master Mix (Applied Biosystems, USA). The thermal cycling conditions were initiated to 95° C. for 20 seconds, 40 amplification cycles at 95° C. for 3 seconds and 60° C. for 30 seconds, with one cycle of dissociation at 95° C. for 15 seconds, 60° C. for 60 seconds, and 95° C. for 15 seconds. Three replicates per sample were run in duplicate. The experimental cycle threshold (Ct) values were normalized to those obtained for GAPDH, and the relative gene expression level was determined using the 2_ddCT methods.
(Quantitative PCR measures a nucleic acid by following its amplification.)

SMILES strings stand for the structures. ≈ marks a conversion by molar mass, not a printed value.

As to `c1ccc2c(c1)cnn1nnnc21` [Compound 1, Tetrazolo[5,1-a]phthalazine], the IC50 in the assay with TK173 cells [1] is below 40 µg/mL; in the assay with TK173 cells [2], 157 µg/mL (≈ 917 µM); in the assay with TK173 cells [3], below 80 µg/mL.

With `Cc1nnc2c3ccccc3cnn12` [Compound 3, 3-Methyl-1,2,4-triazolo[3,4-a]phthalazine], the results for the IC50 in the assay on TK173 cells [1], in the assay with TK173 cells [2] and in the assay on TK173 cells [3] were below 5 µg/mL, 96 µg/mL (≈ 521 µM) and below 20 µg/mL, respectively.

On to `Cc1nn2c(C)nnc2c2ccccc12` [Compound 5, 3,6-Dimethyl-1,2,4-triazolo[3,4-a]phthalazine], for which the IC50 was 39 µg/mL (≈ 197 µM) in the assay with TK173 cells [2] and below 20 µg/mL with TK173 cells [3].

Turning to `[2H]C([2H])([2H])c1nnc2c3ccccc3cnn12` [Compound 12, 3-D3-Methyl-1,2,4-triazolo[3,4-a]phthalazine], the IC50 in the assay with TK173 cells [1] was below 5 µg/mL; with TK173 cells [3] it was below 50 µg/mL.

With `Clc1ccc2c(cnn3nnnc23)c1` [Compound 51b, 8-chlorotetrazolo[5,1-a]phthalazine], the IC50 with TK173 cells [1] and in the assay with TK173 cells [3] was below 5 µg/mL in each case.
